Test results: patent US9566290B2, “Boron-containing small molecules” (Anacor Pharmaceuticals, Inc., priority 2005, dated 2017)
Values joined by “and” are separate entries in the source; they are usually repeats but may differ in a detail not shown here. Equal values may be shown once. Read-outs that look alike come from different tables or passages of the source.

Columns and labels:
[1] = Nail penetration, 14-day dosing of radiolabeled compound (Hui protocol); assay type: in vitro ADME
Experimental: Two nail penetration studies were performed based on the protocol in Hui et al., Journal of Pharmaceutical Sciences, 91(1): 189-195 (2002) (“Hui protocol”). The purpose of this study was to determine and compare the penetration and distribution of C10 in vehicle into the human nail plate in vitro relative to 8% ciclopirox w/w in commercial lacquer (Penlac®).
The study was composed of two groups. The compositions (weight %) of the dosage formulations are as follows: […]
Healthy human finger nail plates were collected from adult human cadavers and stored in a closed container at 0-4° C. Before the experiment, the nail plates were gently washed with normal saline to remove any contamination, then re-hydrated by placing them for three hours on a cloth wetted with normal saline. The nail samples were randomly selected into four groups.
Radioactivity of each group is approximately 0.19±0.01 and 0.22±0.03 μCi/10 μL solutions respectively, for ^14C—C10 (group A), and ^14C-ciclopirox (group C).
Surface washing was started in morning 10 min prior to next dosing, the surface of the nail was washed with cotton tips in a cycle, as follows:
A Teflon one-chamber diffusion cell (PermeGear, Inc., Hellertown, Pa.) was used to hold each nail. To approximate physiological conditions, a small cotton ball wetted with 0.1 mL normal saline was placed in the chamber to serve as a nail bed and provide moisture for the nail plate. Every 3 days, 0.1 mL normal saline was injected through the inlet into the chamber to keep the cotton ball wet. The nail plate was placed on a ledge inside the receptor (1.0 cm in diameter and 0.5 cm high). The ventral (inner) surface of the nail was placed face down and rested on the wet cotton ball. The cells were placed on a platform in a large glass holding tank filled with saturated sodium phosphate solution to keep the cells at a constant humidity of 40%.
After completion of the incubation phase, the nail plate was transferred from the diffusion cell to a clean copper nail holder for sampling process. The nail plate was inverted so that the ventral (nail bed) surface now faced up and the dorsal (outer) dosed surfaced faced down. The copper nail holder has an opening as it sits on top of the stage. When the sampling process initiated, the coarse adjustment was adjusted to move the position of the stage until the nail plate was just touching the tip of the cutter. Then the drill was turned on and the fine adjustment was turned to push the stage closer to the drill, removing a nail core sample. After the above process, approximate 0.40-0.50 mm in depth and 7.9 mm in diameter nail pulverized samples were harvested from the center of the ventral (nail bed) surface of the nail.
The powdered nail samples were collected into a glass scintillation vial and weighted. Aliquots of 5.0 mL Packard soluene-350 (Packard Instrument Company, Meriden, Conn.) was added to the scintillation vial to dissolve the powder. The upper part, the intermediate and dorsal layers of the center of the nail, including the area of application of the dose was cut in the same diameter as the sampled area and was then placed into a glass scintillation vial with 5.0 mL packard soluene-350. The rest of the nail was also placed in a glass scintillation vial with 5.0 mL packard soluene-350.
All radioactivity measurements were conducted with a Model 1500 Liquid Scintillation Counter (Packard Instrument Company, Downer Grove, Ill.). The counter was audited for accuracy using sealed samples of quenched and unquenched standards as detailed by the instrument manual. The ^14C counting efficiency is equal to or greater than 95%. All nail samples pre-treated with packard soluene-350 were incubated at 40° C. for 48 hours followed by the addition of 10 mL scintillation cocktail (HIONIC-FLUOR, Packard Instrument Company, Meriden, Conn.). […]

[2] = Log P determination (octanol/water) by LC/MS/MS; assay type: physicochemical; conditions: for Conc. in Octanol / Conc. in Water: partition
Experimental: C10 (10 μL of […]) at 2× the final concentration was added to 0.5 mL pre-saturated n-octanol and mixed. An equal volume (0.5 mL) of pre-saturated water was added, vortex mixed and then mixed on a rotating shaker for one hour and 24 h in triplicate at ca. 25° C. The organic and aqueous layers were separated by centrifugation for 5 min at ca. 2000 rpm. Twenty five […] of the octanol (top) layer were removed and placed in a pre-labeled tube. Twenty five L of the aqueous layer (bottom) were removed, taking care to avoid octanol contamination, and placed in a pro-labeled tube.
For the octanol sample, 25 μL of ethanol, 25 μL of water and 300 μL of acetonitrile containing the internal standard was added. For the water sample, 25 μL of ethanol, 25 μL of octanol and 300 μL of acetonitrile containing the internal standard [60 mL of acetonitrile add 6 μL of PNP (1000 μg/mL)] was added. For the calibrators 25 μL of octanol, 25 μL of water and 300 μL of acetonitrile containing the internal standard was added. The sample was vortexed for 10 seconds. Two hundred μL of the organic layer were transferred into a clean deactivated autosampler vial.
A 1/concentration weighted linear regression was used for the quantitation of C10. All integration were performed with peak areas using Analyst version 1.3, Applied Biosystems. For C10, peak area ratios analyte to internal standard PNP were used for all quantitation.
The partition coefficient (P) was calculated according to the equation detailed below: P=[Sample concentration]octanol/[Sample concentration]water Log P=log10(partition coefficient) Results: […]

OB1OCc2cc(F)ccc21 [C10, 5-fluorobenzo[c][1,2]oxaborol-1(3H)-ol]
absolute amount of drug equivalent per cotton ball sample versus ciclopirox [1]: significantly higher | amount of equivalent in ventral/intermediate center of the nail layer and cotton ball supporting bed versus group C (ciclopirox) [1]: statistically higher | weight normalized concentration of drug equivalent in nail samples versus ciclopirox equivalent ([1]; dorsal/intermediate center, ventral/intermediate center and remainder nail, 14-day treatment, p≦0.002): significantly higher | Cumulative radioactivity recoveries of carbon-14 ([1]; human, 14 day): 88±9.21% of applied dose | difference of the two test chemicals in cotton ball supporting bed (C10 versus ciclopirox) ([1]; human, 14 day): 250 times | Log P ([2]; 1 h, replicates): 1.93 | Log P ([2]; 24 h, replicates): 1.89 and 1.91 | mean log P ([2]; after 24 h (n=3)): 1.93 | logP at 1 h ([2]; n-octanol/water, 1 h, replicates, read-out: Log P): 2.04 | logP at 24 h ([2]; n-octanol/water, 24 h, replicates): 1.97 | logP at 1 h ([2]; n-octanol/water, after 1 h (n=3), read-out: mean log P): 1.97 | Conc. in Octanol ([2]; 1 h, replicates): 108 µg/mL and 103 µg/mL and 115 µg/mL | Conc. in Water ([2]; 1 h, replicates): 1.26 µg/mL and 1.21 µg/mL and 1.05 µg/mL | Conc. in Octanol ([2]; 24 h, replicates): 109 µg/mL and 99.0 µg/mL and 104 µg/mL | Conc. in Water ([2]; 24 h, replicates): 1.17 µg/mL and 1.28 µg/mL and 1.27 µg/mL
